Measurements published in US20240246918A1, “COMPOUNDS AND COMPOSITIONS AS EIF4E INHIBITORS AND THE USES THEREOF” (Ribometrix, Inc., priority 2022, published 2024).
Like-named read-outs stand apart in the source and are kept apart here.

What was measured:
[1] = biological target: T1, human eIF4E protein (Homo sapiens, UniProt P06730); experiment: Biochemical competitive binding assay (TR-FRET competition, EDA-m7GDP-ATTO-647N probe); conditions: read-out: hEIF4E TR-FRET IC50
T1 construct: purchased Novus NBP-45314
Method in brief: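 IC50 values come from 4-parameter fits of the normalized 665/620 nm TR-FRET ratio. Compound was first incubated 15 min with 4 nM recombinant His-eIF4E bound to 2.5 nM Eu-anti-His antibody, then 15 min with 5 nM m7GDP-ATTO-647N tracer, in pH 7.5 HEPES buffer with 100 mM KCl, Tween-20 and BSA.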

[2] = system: cap-dependent translation in Flp-In-293 reporter cells; experiment: Cellular cap-dependent translation inhibition assay (dual luciferase assay, DLA; Fluc/Rluc ratio, 24 hours); type: cell-based; conditions: dual luciferase assay, Flp-In-293 reporter cells, 24 hours, Fluc/Rluc ratio, read-out: DLA 205 IC50
[3] = system: COLO 205 colorectal tumor cells; experiment: Tumor cell viability inhibition assay (CellTiter-Glo 2.0, 72 hours); type: cell-based; conditions: COLO 205 cell viability
Method in brief: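 IC50 derived by 4-parameter fitting after normalizing luminescence to DMSO and max-inhibition wells. Compounds tested as 11 concentrations in 4-fold steps on COLO 205 cells seeded at 1500 per well in RPMI-1640/10% FBS; ATP content measured with CellTiter-Glo 2.0 after 72 h.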

T1 sequence (P06730 whole entry): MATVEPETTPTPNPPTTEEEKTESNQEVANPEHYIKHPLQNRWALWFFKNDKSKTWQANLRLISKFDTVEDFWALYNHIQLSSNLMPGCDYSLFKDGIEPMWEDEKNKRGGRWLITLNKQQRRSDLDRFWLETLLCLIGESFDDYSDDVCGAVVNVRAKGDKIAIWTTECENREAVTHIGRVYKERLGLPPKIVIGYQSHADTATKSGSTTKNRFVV

IC50 [1] [nM] | IC50 ([3]; Homo sapiens, COLO 205, 72 h) [nM] | IC50 [3] [nM] | SMILES | IC50 ([2]; Homo sapiens, Flp-In-293, 24 h) [nM] | IC50 [2] [nM]
< 100 | < 5000 | – | Cc1nc2c(c(=O)n1CC#Cc1ccc(Cl)cc1-c1ccnc3c(C(=O)NS(C)(=O)=O)csc13)CC(N(C)C1CC1)CC2 (stereo not drawn) [Compound 271] | < 1000 | –
< 100 | – | < 5000 | Cc1cc(-c2cc(Cl)ccc2OCCn2c(C)nc3c(c2=O)CC(N(C)C2CC2)CC3)c2scc(C(=O)NS(C)(=O)=O)c2n1 (single isomer, unassigned) [Compound 303] | – | < 1000
< 100 | < 5000 | – | Cc1nc2c(c(=O)n1CC#Cc1ccc(Cl)cc1-c1ccnc3c(C(=O)O)csc13)C[C@H](N1CC[C@H](F)C1)CC2 (single isomer, unassigned) [Compound 294] | < 1000 | –
< 100 | – | 5000 to 20000 | Cc1cc(-c2cc(Cl)ccc2OCCn2c(C)nc3c(c2=O)CC(N(C)C2CC2)CC3)c2scc(C(=O)NS(=O)(=O)c3ccccn3)c2n1 (single isomer, unassigned) [Compound 287] | – | 1000 to 5000
< 100 | < 5000 | – | Cc1cc(-c2cc(Cl)ccc2OCCn2c(C)nc3c(c2=O)C[C@H](N2CC[C@H](F)C2)CC3)c2scc(C(=O)NS(C)(=O)=O)c2n1 (single isomer, unassigned) [Compound 346] | < 1000 | –
< 100 | < 5000 | – | Cc1nc2c(c(=O)n1CC#Cc1ccc(Cl)cc1-c1ccnc3c(C(=O)O)csc13)CC(N(C)Cc1ccncc1)CC2 (stereo not drawn) [Compound 351] | < 1000 | –
< 100 | < 5000 | – | Cc1nc2c(c(=O)n1CC#Cc1ccc(Cl)cc1-c1ccnc3c(C(=O)NS(C)(=O)=O)csc13)CC(N(C)Cc1ccncc1)CC2 (single isomer, unassigned) [Compound 295] | < 1000 | –
500 to 5000 | > 20000 | – | Cc1nc2c(c(=O)n1CC#Cc1ccc(Cl)cc1-c1ccnc3c(C(=O)O)csc13)CC(N(C)C)CC2 (stereo not drawn) [Compound 350] | > 5000 | –
< 100 | < 5000 | – | Cc1cc(-c2cc(Cl)ccc2OCCn2c(C)nc3c(c2=O)C[C@@H](N2CC[C@H](F)C2)CC3)c2scc(C(=O)NS(C)(=O)=O)c2n1 (single isomer, unassigned) [Compound 347] | < 1000 | –
500 to 5000 | > 20000 | – | Cc1cc(-c2cc(Cl)ccc2OCCn2c(C)nc3c(c2=O)CC(N2CC(F)(F)C2)CC3)c2sccc2n1 (single isomer, unassigned) [Compound 340] | > 5000 | –
100 to 500 | 5000 to 20000 | – | Cc1cc(-c2cc(Cl)ccc2OCCn2c(C)nc3c(c2=O)CC(N(CC(F)(F)F)C2CC2)CC3)c2scc(C(=O)O)c2n1 (single isomer, unassigned) [Compound 319] | 1000 to 5000 | –
< 100 | < 5000 | – | Cc1nc2c(c(=O)n1CC#Cc1ccc(Cl)cc1-c1ccnc3c(C(=O)NS(C)(=O)=O)csc13)C[C@@H](N1CC[C@@H](F)C1)CC2 (single isomer, unassigned) [Compound 349] | < 1000 | –
100 to 500 | 5000 to 20000 | – | Cc1nc2c(c(=O)n1CC#Cc1ccc(Cl)cc1-c1ccnc3c(C(=O)NS(C)(=O)=O)csc13)CC(N1CC(F)(F)C1)CC2 (single isomer, unassigned) [Compound 331] | – | 1000 to 5000
< 100 | – | < 5000 | Cc1cc(-c2cc(Cl)ccc2OCCn2c(C)nc3c(c2=O)CC(N(C)C2CCC(F)(F)C2)CC3)c2scc(C(=O)O)c2n1 (single isomer, unassigned) [Compound 338] | – | < 1000
< 100 | 5000 to 20000 | – | Cc1cc(-c2cc(Cl)ccc2OCCn2c(C)nc3c(c2=O)CC(N(C)CC2CCNCC2)CC3)c2scc(C(=O)NS(C)(=O)=O)c2n1 (single isomer, unassigned) [Compound 289] | 1000 to 5000 | –
< 100 | < 5000 | – | Cc1cc(-c2cc(Cl)ccc2OCCn2c(C)nc3c(c2=O)CC(N2CCN(CC(F)(F)F)CC2)CC3)c2scc(C(=O)O)c2n1 (stereo not drawn) [Compound 278] | < 1000 | –
< 100 | < 5000 | – | Cc1cc(-c2cc(Cl)ccc2OCCn2c(C)nc3c(c2=O)CC(N(C)C2CC2)CC3)c2scc(C(=O)O)c2n1 (single isomer, unassigned) [Compound 335] | < 1000 | –
100 to 500 | – | 5000 to 20000 | Cc1cc(-c2cc(Cl)ccc2OCCn2c(C)nc3c(c2=O)CC(N(CC(F)(F)F)C2CC2)CC3)c2scc(C(=O)NS(C)(=O)=O)c2n1 (single isomer, unassigned) [Compound 309] | – | 1000 to 5000

Second part, the compound before the results:

SMILES | IC50 [1] [nM] | IC50 ([3]; Homo sapiens, COLO 205, 72 h) [nM] | IC50 [3] [nM] | IC50 ([2]; Homo sapiens, Flp-In-293, 24 h) [nM] | IC50 [2] [nM]
Cc1cc(-c2cc(Cl)ccc2OCCn2c(C)nc3c(c2=O)CC(N2CC(F)(F)C2)CC3)c2scc(C(=O)O)c2n1 (stereo not drawn) [Compound 49] | 100 to 500 | 5000 to 20000 | – | 1000 to 5000 | –
Cc1cc(-c2cc(Cl)ccc2OCCn2c(C)nc3c(c2=O)CC(N2CCC(F)(F)CC2)CC3)c2scc(C(=O)NS(C)(=O)=O)c2n1 (single isomer, unassigned) [Compound 251] | < 100 | < 5000 | – | < 1000 | –
Cc1cc(-c2cc(Cl)ccc2OCCn2c(C)nc3c(c2=O)CC(N(C)C)CC3)c2scc(C(=O)NS(C)(=O)=O)c2n1 (stereo not drawn) [Compound 39, 7-[5-chloranyl-2-[2-[6-[di(methyl)amino]-2-methyl-4-oxidanylidene-5,6,7,8-tetrahydroquinazolin-3-yl]ethoxy]phenyl]-5-methyl-N-methylsulfonyl-thieno[3,2-b]pyridine-3-carboxamide; 2,2,2-tris(fluorenyl)acetic acid] | < 100 | < 5000 | – | < 1000 | –
COc1cc(CN(C)C2CCc3nc(C)n(CCOc4ccc(Cl)cc4-c4cc(C)nc5c(C(=O)O)csc45)c(=O)c3C2)ccn1 (stereo not drawn) [Compound 248] | < 100 | < 5000 | – | < 1000 | –
Cc1cc(-c2cc(Cl)ccc2OCCn2c(C)nc3c(c2=O)CC(N(C)C2CCCC2)CC3)c2scc(C(=O)O)c2n1 (stereo not drawn) [Compound 80] | < 100 | < 5000 | – | < 1000 | –
Cc1cc(-c2cc(Cl)ccc2OCCn2c(C)nc3c(c2=O)CC(N(C)CC(F)F)CC3)c2scc(C(=O)NS(C)(=O)=O)c2n1 (stereo not drawn) [Compound 65] | < 100 | < 5000 | – | < 1000 | –
Cc1cc(-c2cc(Cl)ccc2OCCn2c(C)nc3c(c2=O)CC2(CC3)CCN(C)CC2)c2scc(C(=O)O)c2n1 [Compound 268, 7-(5-chloro-2-(2-(1,2′-dimethyl-4′-oxo-7′,8′-dihydro-4′H-spiro[piperidine-4,6′-quinazolin]-3′(5′H)-yl)ethoxy)phenyl)-5-methylthieno[3,2-b]pyridine-3-carboxylic acid] | 500 to 5000 | > 20000 | – | > 5000 | –
Cc1cc(-c2cc(Cl)ccc2OCCn2c(C)nc3c(c2=O)CC(N2CC4(CCN(C)CC4)C2)CC3)c2scc(C(=O)O)c2n1 (stereo not drawn) [Compound 22] | < 100 | > 20000 | – | 1000 to 5000 | –
Cc1cc(-c2cc(Cl)ccc2OCCn2c(C)nc3c(c2=O)CC(N(C)Cc2ccncc2)CC3)c2scc(C(=O)O)c2n1 (single isomer, unassigned) [Compound 99] | < 100 | 5000 to 20000 | – | 1000 to 5000 | –
CC(=O)N(C)C1CCc2nc(C)n(CCOc3ccc(Cl)cc3-c3cc(C)nc4c(C(=O)O)csc34)c(=O)c2C1 (stereo not drawn) [Compound 38] | 100 to 500 | > 20000 | – | > 5000 | –
Cc1cc(-c2cc(Cl)ccc2OCCn2c(C)nc3c(c2=O)CC(N(C)CC2CC(F)(F)C2)CC3)c2scc(C(=O)O)c2n1 (single isomer, unassigned) [Compound 259] | < 100 | – | < 5000 | < 1000 | –
Cc1cc(-c2cc(Cl)ccc2OCCn2c(C)nc3c(c2=O)CC(N(C)CC(F)(F)F)CC3)c2scc(C(=O)NS(C)(=O)=O)c2n1 (stereo not drawn) [Compound 61] | < 100 | < 5000 | – | < 1000 | –
Cc1cc(-c2cc(Cl)ccc2OCCn2c(C)nc3c(c2=O)CC(N(C)C2CN(CC(F)(F)F)C2)CC3)c2scc(C(=O)O)c2n1 (stereo not drawn) [Compound 64, 7-[5-chloranyl-2-[2-[2-methyl-6-[methyl-[1-[2,2,2-tris(fluorenyl)ethyl]azetidin-3-yl]amino]-4-oxidanylidene-5,6,7,8-tetrahydroquinazolin-3-yl]ethoxy]phenyl]-5-methyl-thieno[3,2-b]pyridine-3-carboxylic acid; 2,2,2-tris(fluorenyl)acetic acid] | < 100 | < 5000 | – | < 1000 | –
Cc1cc(-c2cc(Cl)ccc2OCCn2c(C)nc3c(c2=O)CC(N2CCCCC2)CC3)c2ccc(C(=O)NS(C)(=O)=O)n2n1 (stereo not drawn) [Compound 62, 4-[5-chloranyl-2-[2-[2-methyl-4-oxidanylidene-6-(1-piperidyl)-5,6,7,8-tetrahydroquinazolin-3-yl]ethoxy]phenyl]-2-methyl-N-methylsulfonyl-pyrrolo[1,2-b]pyridazine-7-carboxamide] | < 100 | < 5000 | – | < 1000 | –
